Source: ChEMBL document CHEMBL1201862, “PubChem BioAssay data set” (2004)
Activity calls are given as the source filed them.

How the values were obtained:
[1] = biological target: T1, Eukaryotic translation initiation factor 2-alpha kinase 3 (Homo sapiens, UniProt Q9NZJ5); test: Dose response cell-based high-throughput screening assay to measure PERK inhibition. [Related pubchem assays: 1416 ]; format: functional
[2] = biological target: T1, Eukaryotic translation initiation factor 2-alpha kinase 3; test: Counterscreen assay for PERK inhibitors: Dose response cell-based high throughput screening assay to measure inhibition of PERK at 6 hours. [Related pubchem assays: 1522, 1416 ]; format: functional
[3] = cytotoxicity in HPDE-C7 cells, cell-based, fluorescence, HTS (AID 430); format: functional; conditions: Homo sapiens
[4] = cytotoxicity in KRAS-transformed pancreatic duct cells, primary screen, cell-based, fluorescence, HTS (AID 431); format: functional; conditions: Homo sapiens;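 further: cell line used: HPDE-C7K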
Estrogen receptor = biological target: T2, Estrogen receptor (Homo sapiens, UniProt P03372); test: potentiators of ERα–SRC-1 coactivator binding, dose response, biochemical, TR-FRET, ERα LBD (AID 737)
T2 sequence (P03372 whole entry): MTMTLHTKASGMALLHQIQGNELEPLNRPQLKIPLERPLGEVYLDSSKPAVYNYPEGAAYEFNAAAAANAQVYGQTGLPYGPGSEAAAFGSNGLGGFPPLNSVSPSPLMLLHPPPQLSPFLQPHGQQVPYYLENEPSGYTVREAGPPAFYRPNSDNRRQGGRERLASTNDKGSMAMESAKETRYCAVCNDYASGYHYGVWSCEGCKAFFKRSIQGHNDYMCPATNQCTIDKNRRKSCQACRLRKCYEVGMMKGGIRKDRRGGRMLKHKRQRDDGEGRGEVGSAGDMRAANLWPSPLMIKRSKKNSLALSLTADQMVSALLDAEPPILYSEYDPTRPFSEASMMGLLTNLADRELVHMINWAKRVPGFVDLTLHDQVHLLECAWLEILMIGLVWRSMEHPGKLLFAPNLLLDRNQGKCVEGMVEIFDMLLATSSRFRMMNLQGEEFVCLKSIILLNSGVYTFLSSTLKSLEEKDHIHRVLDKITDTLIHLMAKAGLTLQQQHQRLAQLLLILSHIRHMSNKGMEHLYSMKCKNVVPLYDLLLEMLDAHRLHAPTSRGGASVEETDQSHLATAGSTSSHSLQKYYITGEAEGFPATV

[5] = THP-1 cell cytotoxicity, dose response, cytotoxicity control for non-replicating M. tuberculosis project (AID 489025); format: functional
[6] = HepG2 cell cytotoxicity, dose response, cytotoxicity control for non-replicating M. tuberculosis project (AID 489018); format: functional; conditions: Mycobacterium tuberculosis
Hexokinase HKDC1 = Hexokinase HKDC1 (Homo sapiens, UniProt Q2TB90); test: HKDC1 hexokinase inhibitors, dose response, biochemical, W721R variant (AID 504729); format: functional
cells = format: functional
Melanocortin receptor 4 = Melanocortin receptor 4 (Homo sapiens, UniProt P32245); test: MC4R antagonist potency on cAMP, dose response, cell-based, TR-FRET, biased antagonists (AID 602298); format: functional;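 further: antagonist potency against agonist-stimulated cAMP production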
[7] = Shn3 3'UTR reporter inhibitors, dose response, cell-based, Clone20 osteoblasts, firefly luciferase, cherry-picked (AID 624132); format: functional;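 further: firefly luciferase luminescence from reporter carrying the Shn3 3'UTR in osteoblasts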
[8] = HepG2 cell cytotoxicity, dose response, cytotoxicity control for Shn3 inhibitor project, CellTiter-Glo, cherry-picked (AID 624134); format: functional, cell-based
[9] = nonselective inhibitors of cellular cAMP signaling, dose response, counter-screen for MC4R biased antagonist project, cell-based, TR-FRET cAMP detection (AID 602305); format: functional;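 further: U2OS cells stimulated with forskolin near its EC80 as the cAMP inducer; potency is for inhibition of forskolin-stimulated cAMP signaling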

T1 sequence (Q9NZJ5 whole entry): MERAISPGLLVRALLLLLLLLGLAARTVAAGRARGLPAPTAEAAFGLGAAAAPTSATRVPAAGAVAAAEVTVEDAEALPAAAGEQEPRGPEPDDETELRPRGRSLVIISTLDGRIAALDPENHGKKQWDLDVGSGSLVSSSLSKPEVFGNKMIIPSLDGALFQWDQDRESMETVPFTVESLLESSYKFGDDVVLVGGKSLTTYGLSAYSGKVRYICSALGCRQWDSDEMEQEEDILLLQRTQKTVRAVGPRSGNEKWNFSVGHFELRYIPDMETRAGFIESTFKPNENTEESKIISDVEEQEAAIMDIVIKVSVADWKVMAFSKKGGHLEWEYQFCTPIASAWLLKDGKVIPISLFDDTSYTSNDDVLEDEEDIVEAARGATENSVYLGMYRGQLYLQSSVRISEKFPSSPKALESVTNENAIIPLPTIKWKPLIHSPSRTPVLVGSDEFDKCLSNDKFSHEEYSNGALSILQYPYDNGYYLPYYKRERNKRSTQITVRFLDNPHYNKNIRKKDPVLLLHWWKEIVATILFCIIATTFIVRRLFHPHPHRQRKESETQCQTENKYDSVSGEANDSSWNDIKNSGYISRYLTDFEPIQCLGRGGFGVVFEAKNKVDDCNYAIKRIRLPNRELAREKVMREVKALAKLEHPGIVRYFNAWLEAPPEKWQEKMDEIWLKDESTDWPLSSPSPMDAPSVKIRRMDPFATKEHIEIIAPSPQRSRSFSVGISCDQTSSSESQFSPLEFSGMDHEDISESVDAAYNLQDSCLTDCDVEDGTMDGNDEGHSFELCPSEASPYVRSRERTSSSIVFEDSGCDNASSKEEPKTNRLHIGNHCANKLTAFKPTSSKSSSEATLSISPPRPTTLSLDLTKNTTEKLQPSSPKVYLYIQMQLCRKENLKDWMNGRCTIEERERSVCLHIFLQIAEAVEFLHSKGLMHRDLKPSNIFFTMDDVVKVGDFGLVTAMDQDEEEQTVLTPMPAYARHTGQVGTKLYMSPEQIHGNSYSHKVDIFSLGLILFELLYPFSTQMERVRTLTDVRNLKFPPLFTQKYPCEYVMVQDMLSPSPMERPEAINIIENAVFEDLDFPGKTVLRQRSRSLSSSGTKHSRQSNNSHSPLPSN
Chain of Melanocortin receptor 4 (P32245 whole entry): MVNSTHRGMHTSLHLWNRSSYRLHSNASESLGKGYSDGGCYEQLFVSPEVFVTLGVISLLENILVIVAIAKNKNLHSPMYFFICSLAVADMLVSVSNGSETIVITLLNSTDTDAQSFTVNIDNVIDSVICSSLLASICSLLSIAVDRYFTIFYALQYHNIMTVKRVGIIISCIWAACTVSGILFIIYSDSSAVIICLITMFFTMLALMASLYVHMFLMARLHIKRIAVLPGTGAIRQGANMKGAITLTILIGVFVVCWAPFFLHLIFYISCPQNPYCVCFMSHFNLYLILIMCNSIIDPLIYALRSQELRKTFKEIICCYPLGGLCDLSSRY
Chain of Hexokinase HKDC1 (Q2TB90 whole entry): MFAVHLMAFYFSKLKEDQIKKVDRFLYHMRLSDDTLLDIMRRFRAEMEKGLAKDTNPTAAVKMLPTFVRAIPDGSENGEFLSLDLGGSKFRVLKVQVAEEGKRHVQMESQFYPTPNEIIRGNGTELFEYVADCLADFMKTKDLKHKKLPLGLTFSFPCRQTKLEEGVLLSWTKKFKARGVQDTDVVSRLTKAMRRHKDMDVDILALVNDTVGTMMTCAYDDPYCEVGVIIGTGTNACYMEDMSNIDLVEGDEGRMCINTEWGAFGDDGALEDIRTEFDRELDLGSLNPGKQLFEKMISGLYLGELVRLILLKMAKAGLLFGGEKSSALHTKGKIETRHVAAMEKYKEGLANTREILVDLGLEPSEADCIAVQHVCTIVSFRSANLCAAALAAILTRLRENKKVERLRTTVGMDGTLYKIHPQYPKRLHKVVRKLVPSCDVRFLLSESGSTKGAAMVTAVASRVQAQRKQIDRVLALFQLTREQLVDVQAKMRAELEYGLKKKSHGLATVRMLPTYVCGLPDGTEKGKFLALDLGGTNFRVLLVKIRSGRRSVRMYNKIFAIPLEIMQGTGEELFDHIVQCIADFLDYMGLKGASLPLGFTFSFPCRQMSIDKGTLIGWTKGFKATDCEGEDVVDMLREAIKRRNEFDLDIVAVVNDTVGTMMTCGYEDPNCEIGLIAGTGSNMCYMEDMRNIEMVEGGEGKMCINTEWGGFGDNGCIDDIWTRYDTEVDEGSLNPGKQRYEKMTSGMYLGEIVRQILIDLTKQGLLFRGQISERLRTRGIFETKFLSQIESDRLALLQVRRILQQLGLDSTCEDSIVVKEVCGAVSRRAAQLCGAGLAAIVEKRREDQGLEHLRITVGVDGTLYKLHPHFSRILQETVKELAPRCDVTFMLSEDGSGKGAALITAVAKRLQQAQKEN

Row | SMILES | EC50 [1] | EC50 [2] | EC50 [3] | EC50 [4] | EC50 (Estrogen receptor) | CC50 [5] | CC50 [6] | IC50 (Hexokinase HKDC1) | IC50 (cells) | IC50 (Melanocortin receptor 4) | AC50 [7] | AC50 [8] | IC50 [9]
1 | C=CCNC(=O)Nc1ccc(F)cc1F | > 55.7 µM (not active) | > 55.7 µM (not active) |  |  |  |  |  |  |  |  |  |  | 
2 | CCN(CC)c1ccc2c(c1)oc(=O)c1c(Cl)cc(=O)oc12 |  |  | 14.2 µM (active) | 12.1 µM (active) | 14.6 µM (active) | > 40 µM (active) | 11.7 µM (active) | 22.4 µM (inactive) | 14.6 µM (active) | > 64.6 µM (inactive) | 2.22 µM (active) | 8.09 µM (active) | > 64.6 µM (inactive)
